{"source": "patent US20260191683A1", "about": "“SUSTAINED RELEASE OCULAR IMPLANTS” (University of Tennessee Research Foundation, priority 2023, published 2026)", "origin": "cited, not measured here", "conditions": "high permeability"}
{"molecule": "CC(C)C[C@H](CN)CC(=O)O", "note": "[PRG, pregabalin]", "values": [{"measurement": "BCS class", "value": "BCS class I drug"}]}
